The results in this text go back to publication PMC10667535 (Nature Communications, 2023).

Molecules are shown by their SMILES.

For the test, the target named is T1, RSp0980 (Ralstonia pseudosolanacearum, UniProt Q8XR79).
T1 construct: gene narL
T1 sequence (Q8XR79 1-222): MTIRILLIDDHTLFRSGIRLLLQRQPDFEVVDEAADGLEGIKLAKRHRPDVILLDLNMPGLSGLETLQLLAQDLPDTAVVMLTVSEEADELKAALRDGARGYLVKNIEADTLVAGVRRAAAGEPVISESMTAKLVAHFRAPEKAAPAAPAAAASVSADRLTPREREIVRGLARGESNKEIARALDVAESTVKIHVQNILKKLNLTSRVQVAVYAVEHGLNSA
Nature of the test: biochemical.
`Nc1nc2c(ncn2[C@@H]2O[C@@H]3COP(=O)(O)O[C@@H]4[C@H](O)[C@@H](COP(=O)(O)O[C@H]3[C@H]2O)O[C@H]4n2cnc3c(=O)[nH]c(N)nc32)c(=O)[nH]1` [2′,3′-c-di-GMP] came in with an equilibrium dissociation constant (Kd) of 126 ± 1.12 µM.

In turn, `Nc1ncnc2c1ncn2[C@@H]1O[C@H](CO)[C@H]2OP(=O)(O)O[C@H]21` [2′,3′-cAMP] came in with a Kd of 82 ± 0.93 µM.

On to `Nc1nc2c(ncn2[C@@H]2O[C@@H]3CO[P@](=O)(O)O[C@H]4[C@@H](O)[C@H](n5cnc6c(=O)[nH]c(N)nc65)O[C@@H]4CO[P@](=O)(O)O[C@H]3[C@H]2O)c(=O)[nH]1` [bis-3′,5′-c-di-GMP], for which the affinity, expressed as Kd, was 130.4 ± 1.3 µM.
